The results in this text go back to ChEMBL document CHEMBL4190382, “Targeting lysine specific demethylase 4A (KDM4A) tandem TUDOR domain - A fragment based approach” (Bioorg Med Chem Lett, 2018).

For test [1], the target named is T1, E3 ubiquitin-protein ligase UHRF1 (Homo sapiens, UniProt Q96T88).
T1 sequence (Q96T88 whole entry): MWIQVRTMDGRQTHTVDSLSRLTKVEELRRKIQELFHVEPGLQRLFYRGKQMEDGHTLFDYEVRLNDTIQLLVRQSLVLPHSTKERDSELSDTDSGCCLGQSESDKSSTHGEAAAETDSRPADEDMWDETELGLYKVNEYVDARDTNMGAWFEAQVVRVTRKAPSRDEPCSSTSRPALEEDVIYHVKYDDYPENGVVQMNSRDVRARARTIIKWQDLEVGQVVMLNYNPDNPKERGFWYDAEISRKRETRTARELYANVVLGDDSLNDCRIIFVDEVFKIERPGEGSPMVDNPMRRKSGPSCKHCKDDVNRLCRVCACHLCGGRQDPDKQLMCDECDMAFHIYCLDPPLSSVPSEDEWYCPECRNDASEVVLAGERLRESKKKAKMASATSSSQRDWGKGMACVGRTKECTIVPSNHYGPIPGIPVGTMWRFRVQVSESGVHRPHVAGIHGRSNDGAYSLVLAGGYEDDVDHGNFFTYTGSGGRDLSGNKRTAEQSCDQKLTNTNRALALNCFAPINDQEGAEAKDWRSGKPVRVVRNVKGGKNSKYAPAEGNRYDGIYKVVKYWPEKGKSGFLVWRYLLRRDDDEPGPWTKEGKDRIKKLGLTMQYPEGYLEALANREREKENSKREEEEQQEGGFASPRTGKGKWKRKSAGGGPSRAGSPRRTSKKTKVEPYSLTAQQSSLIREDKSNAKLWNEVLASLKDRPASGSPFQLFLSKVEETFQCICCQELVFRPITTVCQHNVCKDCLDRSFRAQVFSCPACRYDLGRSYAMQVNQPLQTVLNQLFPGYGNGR
In words: Binding affinity to 6His-tagged and human UHRF1 tandem TUDOR domain (126 to 285 residues) expressed in Escherichia coli BL21(DE3)-T1R by ITC method. (ITC needs no label: the signal is the heat of the interaction.)

Test [2] deals with T2, Lysine-specific demethylase 4A (Homo sapiens), O75164 [W967A].
T2 sequence (whole entry): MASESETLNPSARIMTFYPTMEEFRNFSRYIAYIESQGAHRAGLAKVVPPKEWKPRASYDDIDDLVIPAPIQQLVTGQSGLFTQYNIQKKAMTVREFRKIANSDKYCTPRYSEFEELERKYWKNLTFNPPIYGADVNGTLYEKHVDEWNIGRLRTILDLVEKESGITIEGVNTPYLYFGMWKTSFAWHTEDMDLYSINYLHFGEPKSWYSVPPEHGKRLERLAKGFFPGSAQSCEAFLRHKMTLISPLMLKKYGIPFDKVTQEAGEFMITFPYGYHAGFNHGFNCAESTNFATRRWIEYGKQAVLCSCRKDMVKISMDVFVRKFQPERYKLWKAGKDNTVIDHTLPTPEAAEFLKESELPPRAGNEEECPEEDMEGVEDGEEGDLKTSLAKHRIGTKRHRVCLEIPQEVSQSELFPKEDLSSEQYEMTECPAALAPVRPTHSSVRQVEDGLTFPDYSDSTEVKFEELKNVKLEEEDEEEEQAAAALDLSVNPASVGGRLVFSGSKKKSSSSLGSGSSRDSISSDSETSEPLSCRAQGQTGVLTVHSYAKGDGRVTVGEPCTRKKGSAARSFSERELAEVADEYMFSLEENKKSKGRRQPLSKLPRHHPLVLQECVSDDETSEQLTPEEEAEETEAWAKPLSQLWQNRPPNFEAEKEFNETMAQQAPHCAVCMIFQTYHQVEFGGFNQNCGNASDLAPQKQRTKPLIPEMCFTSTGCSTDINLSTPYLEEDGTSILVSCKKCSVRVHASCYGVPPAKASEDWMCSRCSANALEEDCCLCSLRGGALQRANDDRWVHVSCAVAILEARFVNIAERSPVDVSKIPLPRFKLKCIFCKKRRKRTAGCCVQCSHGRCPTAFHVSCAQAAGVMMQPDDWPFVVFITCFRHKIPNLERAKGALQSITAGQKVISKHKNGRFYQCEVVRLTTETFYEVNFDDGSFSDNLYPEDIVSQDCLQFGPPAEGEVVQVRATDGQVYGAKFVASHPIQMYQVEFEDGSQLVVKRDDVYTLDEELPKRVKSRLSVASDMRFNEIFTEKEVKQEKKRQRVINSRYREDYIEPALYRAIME
Kind of test: Binding affinity to thrombin cleavable N-terminal 6His tagged and 13C-IVLM labeled human KDM4A tandem TUDOR domain (897 to 1011 residues) W967A mutant expressed in Escherichia coli BL21(DE3)-T1R by ITC method.

Test [3] deals with T3, Lysine-specific demethylase 4A (Homo sapiens, UniProt O75164).
T3 sequence (O75164 whole entry): T2 sequence (whole entry) with A967W
In words: Inhibition of H3(1-10)K4me3 peptide binding to thrombin cleavable N-terminal 6His tagged and 13C-IVLM labeled human KDM4A tandem TUDOR domain (897 to 1011 residues) expressed in Escherichia coli BL21(DE3)-T1R by ITC method.

Substitutions are numbered along the chain they refer to. Activity calls are given as the source filed them. The calls are words filed in the database; no cut-off is given here.

As a reminder, the Ki is the dissociation constant of the complex between target and ligand, obtained from inhibition or displacement. Higher therefore signals a looser hold on the target. As for `CN(C)C[C@H]1C2CCC(c3ccccc3)(C2)[C@H]1O` (stereo partly drawn), the Kd result in test [1] is “Not Active”. Also, the result in test [2] was inactive. The Ki in test [3] is 170 µM.
